Literature values as cited in patent US9060935B2, “Pharmaceutical lipid compositions” (CAMURUS AB, priority 2005, dated 2015).

Tests used:
[1] = room temperature
[2] = native GLP-1

Compound | equilibrium water solubility [1] | plasma half-life [2]
CCCCCCCC/C=C\CCCCCCCC(=O)OCC(O)CO (centres unmarked) [GMO, glycerol monooleate] | ~10^−7 M | 
GLP-1: native glucoregulatory hormone, 37-amino acid peptide with a MW of 4.2 KDa |  | below 2 minutes
